Test system: EBC-1 shMet-4.5 tumors
Test: Combination efficacy of erlotinib with c-met knockdown (Dox) in the EBC-1 shMet-4.5 NSCLC xenograft model
Assay type: in vivo, nude mice (nu/nu)
Conditions: EBC-1 shMet-4.5 xenograft
Description: Test material. Erlotinib (Tarceva™) was provided by OSI Pharmaceuticals to the Formulations Department at Genentech and was weighed out along with a sufficient amount of vehicle (methylcellulose tween (MCT)). Materials were stored in a refrigerator set to maintain a temperature range of 4° C. to 8° C. Anti-c-met monovalent monoclonal antibody MetMAb (rhuOA5D5v2) (WO2007/063816) was provided by the Antibody Engineering Department at Genentech, Inc., in a clear liquid form. The EBC-1 cell line was obtained from Japanese Collection of Research Bioresources (JCRB). Species. Forty nude mice (nu/nu) were obtained from Charles River Laboratories (CRL) and were acclimatized for at least one week prior to being put on study. Animals were housed in ventilated caging systems in rooms with filters supplying High-Efficiency Particulate Air (HEPA). Only animals that appeared to be healthy and were free of obvious abnormalities were used for the study. Study design. EBC-1 cells were cultured in growth media that consisted of RPMI 1640 media (Invitrogen), 2 mM L-glutamine, and 10% fetal bovine serum. To prepare cells for inoculation into mice, cells were trypsinized, washed with ten milliliters of sterile 1× phosphate buffered saline (PBS). A subset of cells was counted by trypan blue exclusion and the remainder of cells was resuspended in 100 μl of sterile 1× PBS to a concentration of 5×10^7 cells per milliliter. Mice were inoculated subcutaneously in the right sub-scapular region with 5×10^6 EBC-1 cells. […] Mice in Group 1 (control group) were treated with 100 μL vehicle control, methylcellulose tween (MCT), every day (QD) via oral gavage (PO) and were switched to drinking water containing 5% sucrose. […] Dox and sucrose water was changed every 2-3 days. Erlotinib and MCT were dosed for 14 days, stopped for 6 days and then resumed for the remainder of the study (20 days). […] All studies and handling of mice complied with the Institutional Animal Care and Use Committee (IACUC) guidelines. [table] Tumor and Body Weight Measurement. […] Fowler Company, Inc.; Newton, Mass.). The following formula was used with Excel v11.2 (Microsoft Corporation; Redmond, Wash.) to calculate tumor volume: […] Efficacy Data Analysis. Tumor inhibition was plotted using KaleidaGraph 3.6 (Synergy Software; Reading, Pa.). Percent growth inhibition (% Inh) at Day 17 was calculated as follows: […] Tumor incidence (TI) was determined by the number of measurable tumors in each group at Day 17. […] Mean tumor volume and standard error of the mean (SEM) were calculated using JMP software, version 5.1.2 (SAS Institute; Cary, N.C.). Data analysis and generation of p-values using either Student's t-test or the Dunnett's t-test was also done using JMP software, version 5.1.2. […] Mice were then grouped into four treatment arms; […] Vehicles, Group 2: Doxycycline (Dox), Group 3: erlotinib (100 mg/kg), and Group 4: erlotinib+Dox (See Table 6).

[1] = 10 mice per group, any day during the study

## C#Cc1cccc(Nc2ncnc3cc(OCCOC)c(OCCOC)cc23)c1 [erlotinib, N-(3-ethynylphenyl)-6,7-bis(2-methoxyethoxy)-4-quinazolinamine]
[1]
  number of complete responses (CR; tumor regression of 100%): no
  number of partial responses (PR; tumor regression >50% but <100% of starting tumor volume): no
Nude mice, day 19, erlotinib 100 mg/kg PO QD, Dox in drinking water
  reduction in tumor growth compared to the vehicle control (tumor inhibition): −6%

Reference: US20160303127A1, “COMBINATION THERAPY WITH C-MET AND EGFR ANTAGONISTS” (Genentech, Inc., priority 2008, published 2016)
